Tests used:
[1] = tested on: murine Panc-02 pancreatic cancer cells; test: Injection of BSA-conjugated sphingolipids into mice with subcutaneous Panc-02 tumors; format: in vivo; conditions: subcutaneous Panc-02 in C57BL/6J mice; injection every other day, 0.1 mL of 100 μM, BSA carrier
Description: (A) Splenic IMCs (Gr-1+CD11b+, also defined as MDSC: myeloid-derived suppressor cells) were isolated from subcutaneous human MDA-MB-231 breast tumor-bearing athymic nude mice, treated with or without dhS1P (to induce the expansion of CD19+CD45R B220+ cells: B-cells), and adoptively transferred into subcutaneous human MDA-MB-231 breast tumor-bearing athymic nude mice before monitoring tumor growth. ANOVA, **p<0.05 compared to PBS control, n≧6. (B) Splenic IMCs were isolated from orthotopic human BxPC-3 pancreatic tumor-bearing athymic nude mice, treated with or without dhS1P, and adoptively transferred into orthotopic human BxPC-3 pancreatic tumor-bearing athymic nude mice before monitoring survival. Logrank test, *p<0.05, n=5. (C) Tumor growth following BSA (lipid carrier control), sphingosine-1-phosphate (S1P), or dhS1P injection every other day, was monitored in C57BL/6J mice engrafted with subcutaneous murine Panc-02 pancreatic cancer cells. ANOVA, **p<0.05 compared to BSA control, n≧6.
Orthotopic pancreatic cancer and subcutaneous breast cancer tumors were established in athymic nude, NOD.CB17-Prkdcscid/J, BALB/cJ, or C57BL/6J mice as previously described (8, 9), with minor modifications. All cell lines used in animal and cellular studies, prior to any modification, were originally obtained from the American Type Culture Collection (Manassas, Va.). For orthotopic BxPC-3-GFP human pancreatic cancer xenografts, 4-6 week old female athymic mice were fully anesthetized with a mixture of ketamine-HCl (129 mg/kg) and xylazine (4 mg/kg) injected intramuscularly. A small incision was made in the left flank, the peritoneum was dissected and the pancreas exposed. Using a 27-gauge needle, 2.5×10^6 cells, prepared in 0.1 mL of Hank's balanced salt solution, were injected into the pancreas. For experimental lung-metastatic osteosarcoma xenografts, 4-6 week old female athymic nude mice were tail vein-injected with 2.5×10^6 human SAOS-2-LM7 cells. […] Tumor size was measured by caliper measurement. […]

[2] = tested on: isolated IMCs (GEMM colonies, multipotent myeloid progenitor cells); test: CFU-GEMM colony forming assay of isolated IMCs; format: cell-based, athymic nude mice; conditions: 5 μM, GEMM-supportive semi-solid media, 3 weeks of culture
Experimental: (A) Splenic IMCs (Gr-1+CD11b+, also defined as MDSCs: myeloid-derived suppressor cells) were isolated from MDA-MB-231 tumor-bearing athymic nude mice and exposed to BSA, S1P (5 μM), or dhS1P (5 μM). Following 24-hour culture incubation, cells were labeled with specific antibodies and analyzed by multicolor flow cytometry (red: IMCs; blue: possible B-cells). (B) Splenic IMCs were isolated from MDA-MB-231 tumor-bearing athymic nude mice and cultured (5×10^4 cells/mL) in GEMM-supportive semi-solid media with BSA, S1P (5 μM), or dhS1P (5 μM). GEMM colonies (multipotent myeloid progenitor cells) were visualized and counted after 3 weeks of culture. ANOVA, *p<0.01 compared to no treatment or BSA-treatment, ***p<0.001 compared to S1P-treatment, n≧3. (C) Splenic hematopoietic progenitors (Lineage-Sca-1+CD117+) were isolated from MDA-MB-231 tumor-bearing athymic nude mice and exposed to BSA, S1P (5 μM), or dhS1P (5 μM). Following 24-hour culture incubation, cells were labeled with specific antibodies and analyzed by multicolor flow cytometry. […]
Isolated IMCs from the spleens of tumor-bearing athymic nude mice were cultured (5×10^4 cells/mL) in GEMM-supportive complete (mouse) methylcellulose media (R&D Systems, Minneapolis, Minn.), according to the manufacturer's instructions, with BSA, S1P (5 μM), or dhS1P (5 μM). GEMM colonies were visualized and counted after 3 weeks of culture.

[3] = tested on: human MDA-MB-231 breast cancer cells; test: PhotoImmunoNanoTherapy, subcutaneous MDA-MB-231 breast tumor growth in athymic nude mice; format: in vivo; conditions: subcutaneous MDA-MB-231 in athymic nude mice; one injection, NIR laser 24 h later
Description: To evaluate the antitumor efficacy of PhotoImmunoNanoTherapy, two murine models of breast cancer were utilized to study effects in T-cell-competent hosts (murine 410.4 cells in BALB/cJ mice) and T-cell-deficient hosts (human MDA-MB-231 cells in athymic nude mice; murine 410.4 cells in NOD.CB17-Prkdcscid/J mice), in addition to a subcutaneously engrafted model of pancreatic cancer (murine Panc-02 cells in C57BL/6J mice), an orthotopic pancreatic cancer model (human BxPC-3 cells in athymic nude mice), and an experimental model of lung-metastatic osteosarcoma (human SAOS-2-LM7 cells in athymic nude mice). Treatments were initiated one week following tumor establishment and consisted of injections of ICG-CPSNPs or controls followed 24 h later by NIR laser treatment of the tumor location to allow adequate tumor accumulation of PEGylated ICGCPSNPs. […] In the most elaborate study, MDA-MB-231 tumor growth was abrogated in athymic nude mice receiving PEGylated ICG-CPSNPs but not PBS or PEGylated ghost CPSNPs (FIG. 1A). Furthermore, MDA-MB-231 tumor growth was not blocked by non-PEGylated (citrate-terminated) ICG-CPSNPs or free ICG.
Orthotopic pancreatic cancer and subcutaneous breast cancer tumors were established in athymic nude, NOD.CB17-Prkdcscid/J, BALB/cJ, or C57BL/6J mice as previously described (8, 9), with minor modifications. […] Tumor size was measured by caliper measurement. […]

Row | Structure (SMILES) | Tumor growth [1] | CFU-GEMM colony formation [2] | Tumor growth [3]
1 | CCCCCCCCCCCCC/C=C/[C@@H](O)[C@@H](N)COP(=O)(O)O [S1P, sphingosine-1-phosphate, reference compound] | augmented tumor growth | dramatically augmented | 
2 | CC1(C)C(/C=C/C=C/C=C/C=C2\N(CCCCS(=O)(=O)O)c3ccc4ccccc4c3C2(C)C)=[N+](CCCCS(=O)(=O)[O-])c2ccc3ccccc3c21 [free ICG, indocyanine green] |  |  | not blocked

Reference: US20160206633A1, “dhS1P AND USE OF SAME AS AN ANTICANCER THERAPEUTIC AND IMMUNOMODULATOR” (Penn State Research Foundation, Inc., priority 2013, published 2016)
